This passage reports IC50 results from patent publication US7342027B2 (Yuhan Corporation, priority 2002, dated 2008).

Each structure is given as a SMILES string. A value given as a limit tells only on which side of the number the result lay.

Common to all, as to type: biochemical
In experiment [1] the target is T1, Cathepsin H (Calbiochem, 219388) (Homo sapiens, UniProt P09668).
T1 construct: purchased Calbiochem 219388
T1 sequence (P09668 98-335): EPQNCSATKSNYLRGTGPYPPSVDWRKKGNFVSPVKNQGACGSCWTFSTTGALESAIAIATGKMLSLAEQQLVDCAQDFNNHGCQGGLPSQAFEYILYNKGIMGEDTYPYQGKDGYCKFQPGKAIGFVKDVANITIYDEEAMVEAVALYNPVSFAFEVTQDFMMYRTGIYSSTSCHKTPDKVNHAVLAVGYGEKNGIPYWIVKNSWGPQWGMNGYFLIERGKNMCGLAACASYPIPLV
The experiment in a line: Selectivity study: cathepsin H (L-Arg-pNA). The following applies: 1 hour at 40° C., read-out: Cathepsins (IC50, nM) H. The protocol: (§1) Test 2: Selectivity Study
(§2) Selectivity study for the compounds of the present invention was performed using cathepsin C (Sigma, C8511), cathepsin G (Calbiochem, 219373), cathepsin H (Calbiochem, 219388), cathepsin L (Calbiochem, 219402), and cathepsin S (Eur. J. Biochem. 236, 558 (1996) as enzyme sources.
Cathepsin H (Calbiochem, 219388) was dissolved in 20 mM NaOAc, 1 mM EDTA-2Na and 100 mM NaCl buffer (pH 4.6). All inhibitors were prepared dimethyl sulfoxide (DMSO). In vitro assays for cathepsin H were conducted with L-Arg-pNA (BACHEM, 1-1160) as a substrate. Samples were pre-incubated for 5 minutes at 40° C. Reaction was initiated by the addition of enzyme to samples, which were then incubated for 1 hour at 40° C. The absorbance of p-nitroaniline released was monitored at 405 nm using spectrophotometer.
(§3) The concentrations of the test compounds, which inhibit 50% of cathepsin s C, G, H, L and S activity, are represented as IC50 in Table 2.

The target of experiment [2] is T2, Cathepsin L (Calbiochem, 219402) (Homo sapiens, UniProt P07711).
T2 construct: purchased Calbiochem 219402
As to the kind of experiment: Selectivity study: cathepsin L (Z-Phe-Arg-AMC). The following applies: 1 hour at 25° C., read-out: Cathepsins (IC50, nM) L. The protocol:
as §1, §2
Cathepsin L (Calbiochem, 219402) was dissolved in 50 mM NaOAc buffer (pH 5.0). All inhibitors were prepared in dimethyl sulfoxide (DMSO). […] Samples were pre-incubated for 5 minutes at 25° C. Reaction was initiated by the addition of enzyme to samples, which were then incubated for 1 hour at 25° C. The fluorescence of AMC (7-amino-4-methylcoumarin) was monitored at 460 nm (excitation wavelength 360 nm), using fluorescence spectrophotometer.
as §3

For experiment [3], the target named is T3, Cathepsin G (Calbiochem, 219373) (Homo sapiens, UniProt P08311).
T3 construct: purchased Calbiochem 219373
T3 sequence (P08311 21-244): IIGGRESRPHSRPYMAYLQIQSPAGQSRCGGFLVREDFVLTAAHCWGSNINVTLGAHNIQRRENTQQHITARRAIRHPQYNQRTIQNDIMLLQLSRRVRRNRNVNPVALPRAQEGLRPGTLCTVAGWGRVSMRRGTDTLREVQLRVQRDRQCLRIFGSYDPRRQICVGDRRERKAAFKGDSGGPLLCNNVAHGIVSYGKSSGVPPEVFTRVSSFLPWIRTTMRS
As to the kind of experiment: Selectivity study: cathepsin G (Suc-Ala-Ala-Pro-Phe-pNA). The following applies: 1 hour at 25° C., read-out: Cathepsins (IC50, nM) G. Here is the method: as §1, §2
Cathepsin G (Calbiochem, 219373) was dissolved in 50 mM NaOAc and 150 mM NaCl buffer (pH 5.5). All inhibitors were prepared in dimethyl sulfoxide (DMSO). In vitro assays for cathepsin G were conducted with Suc-Ala-Ala-Pro-Phe-pNA (Calbiochem, 219407) as a substrate. Samples were pre-incubated for 10 minutes at 25° C. Reaction was initiated by the addition of enzyme to samples, which were then incubated for 1 hour at 25° C. The absorbance of p-nitroaniline released was monitored at 405 nm using spectrophotometer.
as §3

The target in experiment [4] is Recombinant human Cathepsin S (Homo sapiens, UniProt P25774). As to the kind of experiment: Selectivity study: cathepsin S (Z-Val-Val-AMC). The following applies: 30 minutes at 37° C., read-out: Cathepsins (IC50, nM) S. Here is the method:
as §1, §2
Recombinant human Cathepsin S (Eur. J. Biochem. 236, 558 (1996) was dissolved in 0.1 M NaOAc 1 mM EDTA-4Na buffer (pH 5.5). All inhibitors were prepared in dimethyl sulfoxide (DMSO). In vitro assays for cathepsin S were conducted with Z-Val-Val-AMC (BACHEM, 1-1160) as a substrate. Samples were pre-incubated for 10 minutes at 4° C. Reaction was initiated by the addition of enzyme to samples, which were then incubated for 30 minutes at 37° C. The florescence of AMC (7-amino-4-methylcoumarin) released was monitored at 465 nm (excitation wavelength 360 nm), using fluorescence spectrophotometer.
as §3

The target of experiment [5] is T4, Cathepsin C (Sigma, C8511) (Bos taurus, UniProt Q3ZCJ8).
T4 construct: purchased Sigma C8511
The experiment in a line: Selectivity study: cathepsin C (Gly-Phe-pNA). The following applies: 1 hour at 37° C., read-out: Cathepsins (IC50, nM) C. The protocol: as §1, §2
Cathepsin C (Sigma, C8511) was dissolved in D.W. buffer (pH 5.5). All inhibitors were prepared in dimethyl sulfoxide (DMSO). In vitro assays for cathepsin C were conducted with Gly-Phe-pNA (Sigma, G-0142) as a substrate. Samples were pre-incubated for 10 minutes at 37° C. Reaction was initiated by the addition of enzyme to samples, which were then incubated for 1 hour at 37° C. The absorbance of p-nitroaniline released was monitored at 405 nm using spectrophotometer.
as §3

Experiment [6] deals with T5, Recombinant human cathepsin K (Homo sapiens, UniProt P43235).
T5 construct: made in house
T5 sequence (P43235 115-329): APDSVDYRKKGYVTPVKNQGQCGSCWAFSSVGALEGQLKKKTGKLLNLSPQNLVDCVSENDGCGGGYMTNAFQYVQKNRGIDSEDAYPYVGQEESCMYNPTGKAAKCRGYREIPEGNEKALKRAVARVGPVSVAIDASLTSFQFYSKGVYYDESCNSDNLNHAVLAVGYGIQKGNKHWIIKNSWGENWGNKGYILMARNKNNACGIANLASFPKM
As to the kind of experiment: Inhibition of cathepsin K activity (Z-Phe-Arg-AMC fluorescence assay). To be noted: 25 uM Z-Phe-Arg-AMC, pH 5.5, 1 hour at 37° C. The gist of the method:
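Z-Phe-Arg-AMC at 25 uM in 100 mM Na acetate pH 5.5 with 20 mM cysteine, 5 mM EDTA and 2% final DMSO; reaction started by adding enzyme, then 1 hour at 37° C. Fluorescence read at ex 360/em 460 nm; IC50 is the concentration giving 50% inhibition.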

T2 sequence (P07711 114-333): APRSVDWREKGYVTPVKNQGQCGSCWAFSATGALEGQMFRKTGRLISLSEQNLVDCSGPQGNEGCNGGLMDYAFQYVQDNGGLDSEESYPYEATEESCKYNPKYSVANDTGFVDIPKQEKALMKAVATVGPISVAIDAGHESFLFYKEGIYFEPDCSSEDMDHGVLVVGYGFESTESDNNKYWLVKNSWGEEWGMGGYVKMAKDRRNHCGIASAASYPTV
Recombinant human Cathepsin S, sequence (P25774 115-331): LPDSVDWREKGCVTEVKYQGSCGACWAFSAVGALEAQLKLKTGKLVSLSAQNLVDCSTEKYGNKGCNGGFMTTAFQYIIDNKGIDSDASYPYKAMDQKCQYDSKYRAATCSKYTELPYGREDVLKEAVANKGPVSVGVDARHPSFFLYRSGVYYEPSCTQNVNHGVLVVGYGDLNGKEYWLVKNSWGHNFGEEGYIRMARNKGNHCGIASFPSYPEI
T4 sequence (Q3ZCJ8 25-463): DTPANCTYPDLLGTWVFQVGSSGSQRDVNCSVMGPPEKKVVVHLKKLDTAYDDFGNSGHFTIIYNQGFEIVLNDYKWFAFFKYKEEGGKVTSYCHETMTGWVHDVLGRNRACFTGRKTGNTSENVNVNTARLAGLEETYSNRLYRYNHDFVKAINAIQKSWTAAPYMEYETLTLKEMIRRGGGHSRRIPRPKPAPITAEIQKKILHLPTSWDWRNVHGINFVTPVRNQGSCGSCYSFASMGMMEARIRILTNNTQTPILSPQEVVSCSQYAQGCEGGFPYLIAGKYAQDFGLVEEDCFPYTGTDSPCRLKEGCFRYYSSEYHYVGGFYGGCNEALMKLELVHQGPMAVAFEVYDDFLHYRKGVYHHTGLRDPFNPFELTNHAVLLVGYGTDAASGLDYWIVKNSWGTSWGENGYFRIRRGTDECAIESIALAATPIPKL

Broadly, the IC50 is the concentration that inhibits the measured activity by half. With `O=C(NC1(C(=O)NC2CCN(c3ccc(F)cc3N3CCC3=O)CC2=O)CCCCC1)c1ccco1` (stereo not shown) [Example 94, 4-[N-[1-[N-(furan-2-ylcarbonyl)amino]cyclohexanecarbonyl]amino]-1-[4-fluoro-2-(azetidin-2-one-1-yl)phenyl]piperidin-3-one], the IC50 in experiment [1] is over 1000 nM; in experiment [2] it was 1450 nM; in experiment [3] it was over 1000 nM; in experiment [4], 197 nM; in experiment [5], over 1000 nM.
Consider `O=C(NC1(C(=O)NC2CCN(c3ccccc3[N+](=O)[O-])CC2=O)CCCCC1)c1cc2ccccc2o1` (stereo not shown) [Example 2, 4-[N-[1-[N-(benzofuran-2-ylcarbonyl)amino]cyclohexanecarbonyl]amino]-1-(2-nitrophenyl)piperidin-3-one], for which the IC50 is 5.97 nM in experiment [6]; over 1000 nM in experiment [1]; 2100 nM in experiment [2]; over 1000 nM in experiment [3]; 2100 nM in experiment [4]; over 1000 nM in experiment [5].
On to `O=C(NC1(C(=O)NC2CCN(c3ccccc3N3CC=CC3)CC2=O)CCCCC1)c1cc2ccccc2o1` (stereo not shown) [Example 57], for which the IC50 in experiment [1] was over 1000 nM; in experiment [2] it was 285 nM; in experiment [3], over 1000 nM; in experiment [4], 731 nM; in experiment [5] it was over 1000 nM.
As for `CS(=O)(=O)c1ccccc1N1CCC(NC(=O)C2(NC(=O)c3ccco3)CCCCC2)C(=O)C1` (stereo not shown) [Example 76, 4-[N-[1-[N-(furan-2-ylcarbonyl)amino]cyclohexanecarbonyl]amino]-1-(2-methanesulfonylphenyl)piperidin-3-one], the IC50 in experiment [6] was 8.17 nM; in experiment [1], over 2460 nM; in experiment [2] it was 971 nM; in experiment [3] it was over 2460 nM; in experiment [4], 204 nM; in experiment [5] it was over 2460 nM.
Take `CS(=O)(=O)c1cc(F)ccc1N1CCC(NC(=O)C2(NC(=O)c3ccc(F)cc3)CCCCC2)C(=O)C1` (stereo not shown) [Example 147, 4-[N-[1-[N-(4-fluorobenzoyl)amino]cyclohexanecarbonyl]amino]-1-(4-fluoro-2-methanesulfonylphenyl)piperidin-3-one]: the concentration for half-maximal inhibition (IC50) in experiment [6] is 4.77 nM; in experiment [1] it was over 1000 nM; in experiment [2], 249 nM; in experiment [3], over 1000 nM; in experiment [4] it was 214 nM; in experiment [5], over 1000 nM.
As to `CNC(=O)c1ccccc1N1CCC(NC(=O)C2(NC(=O)c3cc4ccccc4o3)CCCCC2)C(=O)C1` (stereo not shown) [Example 62, 4-[N-[1-[N-(benzofuran-2-ylcarbonyl)amino]cyclohexanecarbonyl]amino]-1-[2-(N-methylcarbamoyl)phenyl]piperidin-3-one], the half-inhibitory concentration (IC50) in experiment [1] was over 1000 nM; in experiment [2] it was over 450 nM; in experiment [3] it was over 1000 nM; in experiment [4], over 450 nM; in experiment [5], over 1000 nM.
For `CN(C)C(=O)c1ccccc1N1CCC(NC(=O)C2(NC(=O)c3cc4ccccc4o3)CCCCC2)C(=O)C1` (stereo not shown) [Example 61, 4-[N-[1-[N-(benzofuran-2-ylcarbonyl)amino]cyclohexanecarbonyl]amino]-1-[2-(N,N-dimethylcarbamoyl)phenyl]piperidin-3-one], the half-maximal inhibitory concentration (IC50) in experiment [1] is over 1000 nM; in experiment [2], over 300 nM; in experiment [3], over 1000 nM; in experiment [4], over 300 nM; in experiment [5], over 1000 nM.
Consider `O=C(NC1(C(=O)NC2CCN(c3ccccc3N3CCCS3(=O)=O)CC2=O)CCCCC1)c1cc2ccccc2o1` (stereo not shown) [Example 75], for which the IC50 in experiment [6] is 0.51 nM; in experiment [1] it was over 1000 nM; in experiment [2] it was 32.5 nM; in experiment [3], over 1000 nM; in experiment [4], over 150 nM; in experiment [5], over 1000 nM.
On to `O=C(NC1(C(=O)NC2CCN(c3ccccc3N3CCCC3=O)CC2=O)CCCCC1)c1cc2ccccc2o1` (stereo not shown) [Example 44, 4-[N-[1-[N-(benzofuran-2-ylcarbonyl)amino]cyclohexanecarbonyl]amino]-1-[2-(pyrrolidin-2-one-1-yl)phenyl]piperidin-3-one], for which the IC50 was 4.96 nM in experiment [6]; over 690 nM in experiment [1]; 574 nM in experiment [2]; over 690 nM in experiment [3]; 460 nM in experiment [4]; 394 nM in experiment [5].
As to `O=C(NC1(C(=O)NC2CCN(c3ccccc3-n3cccc3)CC2=O)CCCCC1)c1cc2ccccc2o1` (stereo not shown) [Example 60, 4-[N-[1-[N-(benzofuran-2-ylcarbonyl)amino]cyclohexanecarbonyl]amino]-1-[2-(pyrrol-1-yl)phenyl]piperidin-3-one], the IC50 in experiment [1] was over 1000 nM; in experiment [2] it was 103 nM; in experiment [3], over 1000 nM; in experiment [4], over 150 nM; in experiment [5], over 1000 nM.
For the molecule `COc1ccc(N2CCC(NC(=O)C3(NC(=O)c4ccco4)CCCCC3)C(=O)C2)c(S(C)(=O)=O)c1` (stereo not shown) [Example 84, 4-[N-[1-[N-(furan-2-ylcarbonyl)amino]cyclohexanecarbonyl]amino]-1-(4-methoxy-2-methylsulfonylphenyl)piperidin-3-one], the IC50 in experiment [6] was 6.24 nM; in experiment [1] it was over 1000 nM; in experiment [2] it was 986 nM; in experiment [3], over 1000 nM; in experiment [4], 212 nM; in experiment [5], over 1000 nM.
As to `COc1ccc(N2CCC(NC(=O)C3(NC(=O)c4ccc(F)cc4)CCCCC3)C(=O)C2)c(S(C)(=O)=O)c1` (stereo not shown) [Example 148, 4-[N-[1-[N-(4-fluorobenzoyl)amino]cyclohexanecarbonyl]amino]-1-(2-methanesulfonyl-4-methoxyphenyl)piperidin-3-one], the IC50 in experiment [6] was 3.12 nM; in experiment [1], over 1000 nM; in experiment [2], 178 nM; in experiment [3] it was over 1000 nM; in experiment [4], 141 nM; in experiment [5], over 1000 nM.
